According to patent US11933781B2, “Fibrosis model and methods of use thereof” (The Regents of the University of Colorado, priority 2020, dated 2024):
Entries after “also recorded” stand apart in the source; their conditions may differ.

Tests used:
IPF HBECs [1] = assay: Induction of the unjammed-to-jammed transition (UJT) in IPF HBECs; type: cell-based, human; details: day 14 IPF HBECs
Description: (§1) Epithelial Cell Culture: Primary human bronchial epithelial cells (HBECs) were obtained from two sources (1) provided by Dr. Hong Wei Chu at National Jewish Health, or (2) lung transplant collection at the University of Colorado Hospital (IRB protocol: 11-1664 or 18-0572). Epithelial cells from bronchial brushes or CT-guided dissection were expanded to passage 2 before being cultured at air liquid interface (ALI). Control (N=11), IPF (N=6), and COPD (N=3) were age matched and controls had no history of chronic lung disease (Table 1). Cells were seeded on 24-Transwell plates (Corning, Corning, New York, 3470) coated with type I collagen (Corning, Corning, New York, 354236) and maintained under submerged conditions for five to seven days until the cells reached confluence. Culture media was a 1:1 mixture of DMEM and BEBM (Lonza, Basel, Switzerland, CC170) supplemented with retinoic acid (Sigma-Aldrich, Germany, R-2625) nystatin (Sigma-Aldrich, Germany N1638), and bovine serum albumin (FisherSci, Thermo Fisher Scientific, Waltham, Massachusetts BP9703100). Once confluent, apical media was removed and maintained at ALI. HBECs began recapitulating the in vivo airway, with production of mucus (6-9 days after establishing ALI) and development of a pseudostratified epithelium. Cells were switched to a starvation media (lacking supplemental epidermal growth factor, hydrocortisone, and bovine pituitary extract) 24 hours prior to experimentation.
(§2) For inhibitor, activator, and ligand treatments HBECs were cultured in a starvation media in the absence of EGF, hydrocortisone, and bovine pituitary extract for 24 hours prior to treatment initiation. Cells were then treated for 2-4 hours (with exception of AREG neutralizing antibody which was maintained in the culture media), media was aspirated, the wells were washed with warm PBS and then replaced with fresh starvation media without inhibitor/activator/ligand present, and subsequently imaged. For experiments that required subsequent media changes (96 hour) cells fresh starvation media was changed 48 hours afterwards.
(§3) Live Cell Imaging and Dynamics Measurement: To assess cellular dynamics, time-lapse microscopy and subsequent analysis were completed. Two imaging schemes were utilized: (1) images were taken every 5 minutes for 200 minutes during HBEC differentiation; (2) images were taken every 20 minutes for 48, 96, or 144 hours after HBEC experimental intervention. Phase contrast images were acquired on a Keyence BZ-X810 with a stage incubator (37° C., 5% CO2). Dynamic analysis followed previously published workflows (10-12, 22). Briefly, using phase contrast images instantaneous velocities were mapped by particle image velocimetry utilizing open source PIVLab on MATLAB. Velocity fields were obtained with 2 passes (64×64 and 32×32 pixel size interrogation window with 50% overlap) with a pixel size of 0.75488 μm using a Fast Fourier Transformation method. Trajectories from the PIV were seeded onto a grid and obtained via forward-integration of subsequent fields. These values were then used to determine mean-squared-displacement (MSD) and self-overlap order parameter (Q): MSD(Δt)= ? ri(t+Δt)−ri(t)|2 ? and Q(Δt)=N−1ΣwiNi=1 as previously published. Instantaneous room mean squared velocity (VRMS) of the monolayer was obtained as previously published: VRMS(t)=√1MΣ ? |v(t)2 ? jMj=1
Cell Shape Analysis: Cell shape measurements were achieved via cell border delineation by F-actin immunofluorescence. Images were segmented utilizing SeedWater Segmenter. Similar to previously published workflows, we segmented images which were subsequently analyzed in ImageJ for the shape index (q=Perimeter√Area) and aspect ratio (major and minor axis) for all cells within a given field of view. For each experimental condition an n≥3 was used with at least 3 independent wells per donor per treatment condition. […]

COPD HBECs = assay: Induction of jamming in COPD HBECs; type: cell-based, human
Description: as §1
as §2, with “afterwards. […]” for “afterwards.”

IPF HBECs [2] = assay: YAP immunofluorescence in IPF HBECs; type: cell-based, human; details: IPF HBECs 48 hours after treatment
Experimental: Immunofluorescence staining: Cells were fixed with 4% paraformaldehyde in PBS with calcium and magnesium for 30 minutes at room temperature. Cells were then washed with PBS and subsequently permeabilized (Triton™-X, at 0.1%) and blocked with 5% bovine serum albumin in PBS for 1 hour at room temperature. Cells were then incubated for >16 hours at 4 degrees with primary antibodies. Primary antibodies were aspirated, and cells were washed with PBS+0.1% Tween-20 at room temperature. Cells were then incubated for 1 hour at room temperature with secondary antibodies (1:500) and/or Phalloidin-iFluor™ 488 1:2000. Cells were stained with 4′,6-diamidino-2-phenylindole at 1:20000 (BioLegend®, San Diego, California, 422801). Subsequently, transwell membranes, or hydrogels, were removed from the well and mounted on glass slides with Fluoromount-G® (SouthernBiotech™, Birmingham, Alabama, 0100-01). Slides were then visualized using an Olympus BX63 microscope (Olympus, Tokyo, Japan).
Immunofluorescence and cell number quantification for HBEC experiments: For total fluorescence quantification (i.e., ERBB2), all images were processed in the same manner with the same microscopy settings. To determine mean fluorescence the channel of interest was separated in ImageJ, and the mean gray value was measured for the field of view and normalized by the total number of cells. Cell counting was achieved by taking 40×images and manually counting all nuclei in a field of view (approximately 200-300). The number of cells also expressing the marker of interested were then counted and normalized by the total number of cells per field. For each experiment a biological n≥3 was used with at least 5 fields of view per well and at least 2 wells being counted in total per donor.

[3] = tested on: proximal, jammed cultures; assay: IL-6 family cytokine induced unjamming of proximal airway epithelial cultures; type: cell-based, human; details: proximal cultures pre-treated, then stimulated with IL-6 family cytokines
Experimental: as §3, with “These values were then used to determine mean-squared-displacement (MSD) and self-overlap order parameter (Q): MSD(Δt)= ? ri(t+Δt)−ri(t)|2 ? and Q(Δt)=N−1ΣwiNi=1 as previously published. Instantaneous room mean squared velocity (VRMS) of the monolayer was obtained as previously published: VRMS(t)=√1MΣ ? |v(t)2 ? jMj=1” left out
Cell Shape Analysis: Cell shape measurements were achieved via cell border delineation by F-actin immunofluorescence. […] Similar to previously published workflows, we segmented images which were subsequently analyzed in ImageJ for the shape index (q=Perimeter√Area) and aspect ratio (major and minor axis) for all cells within a given field of view. […]

IPF HBECs [4] = assay: Gene expression of ERBB receptors, YAP target genes and MUC5B in IPF HBECs; type: cell-based, human; details: IPF HBECs after inhibition
Experimental: Quantitative RT-PCR Analysis: Total RNA was extracted using RNeasy® Mini kit (Qiagen, Hilden, Germany) and quantified by NanoDrop™ (ThermoFisher Scientific™, Waltham, Massachusetts).Reverse transcription was completed using the High Capacity cDNA Reverse Transcription Kit (Applied Biosystems™, Thermo Fisher Scientific™, Waltham, Massachusetts). Gene expression was analyzed by using TaqMan® Advanced Master Mix (Thermo Fisher Scientific™, Waltham, Massachusetts and TaqMan® assays. They were subsequently run in triplicate on the ViiA™ 7 Real-Time machine (Thermo Fisher Scientific™, Waltham, Massachusetts). Primer IDs were: β-ACTIN, Hs01060665_g1; MUC5B, Hs00861595_m1; MUC5AC, Hs01365616_m1; EGFR, Hs0176090_m1; ERBB2, Hs01001580_m1; ZEB1, Hs00232783_m1; SNAI1, Hs00195591_m1; VIM, Hs00185584_m1; CTGF, Hs00170014_m1; AREG, Hs00950669_m1; FN1, Hs01549976_m1; PDGFRA, Hs00998018_m1; PDGFA, Hs00234994_m1; PDGFRB, Hs01019589_m1; PDGFB, Hs00966522_m1; TGFBRI, Hs00610320_m1; TGFBI, Hs00998133_m1; COL1A1, Hs00164004_m1; ACTA2, Hs00426835; MMP3, Hs00968305_m1; MMP9, Hs00957562_m1; TIMP1, Hs01092512_g1; and TIMP2, Hs00234278_m1.

[5] = tested on: primary human lung fibroblasts (HLFs); assay: Activation of human lung fibroblasts on 3 kPa hydrogels by HBEC conditioned media; type: cell-based; details: HLFs in IPF conditioned HBEC media supplemented with inhibitor
Experimental: Culture and treatment of HLFs: Primary human lung fibroblasts (HLFs) were obtained from control lungs not suitable for transplantation at National Jewish Health. Briefly, pieces of tissue were placed into a tissue-culture dish and weighed down by a coverslip. Cells were cultured in DMEM (Corning, Corning, New York, 10-013-cv) supplemented with L-glutamine (25-005-cl), penicillin/streptomycin (Corning, Corning, New York, 30-002-c1), and 10% fetal bovine serum (ATCC®, Manassas, Virginia, 30-2020). These fibroblasts were then sub-cultured in t-75 flasks. All HLFs used in this study (N=4) were seeded at passage 3. […]
Quantitative RT-PCR Analysis: Total RNA was extracted using RNeasy® Mini kit (Qiagen, Hilden, Germany) and quantified by NanoDrop™ (ThermoFisher Scientific™, Waltham, Massachusetts).Reverse transcription was completed using the High Capacity cDNA Reverse Transcription Kit (Applied Biosystems™, Thermo Fisher Scientific™, Waltham, Massachusetts). […]
Immunofluorescence and cell number quantification for HLF experiments: For fluorescence quantification, (i.e., vimentin or alpha-SMA) images were all processed using the same settings. Fluorescence intensity was determined by channel separation and measurement of mean gray value for the field and normalized to total cell number. Cell number was determined by automated counting in ImageJ. […]

Compound	induction of the UJT (jamming) in IPF epithelia (IPF HBECs [1])	induction of jamming in COPD epithelia (COPD HBECs)	YAP nuclear exclusion (IPF HBECs [2])	effect of inhibitor pre-treatment on IL-6 family cytokine induced unjamming [3]	transcription of ERBB receptors, YAP target genes and MUC5B (IPF HBECs [4])	fibroblast activation [5]	rescue of increase in cell number and pro-fibrotic gene expression [5]
Verteporfin	halted migration and induced a cobblestone appearance in the epithelia	not responsive to ERBB-YAP inhibition	results in YAP nuclear exclusion	SRC and YAP were essential for the acquisition of this fluid-like phenotype	reduced the transcription of ERBB receptors, YAP target genes, and MUC5B nearly back to control levels; also recorded: decreases 738 ERBB-YAP target gene expression	–	–
O=[N+]([O-])c1ccc2c(c1)S(=O)(=O)C=C2 [Stattic]	did not induce the UJT	–	–	JAK/STAT signaling was dispensable for IL-6 family cytokine induced unjamming in proximal cultures	–	–	–
NC(=O)c1ccc(-c2nc(-c3ccc4c(c3)OCO4)c(-c3ccccn3)[nH]2)cc1 [SB431542]	–	–	–	–	–	reduced fibroblast activation	none of these treatments alone were able to fully rescue the increase in cell number or the associated pro-fibrotic gene expression
